Laboratory results as given in PMC10398685 (ACS Omega, 2023).
Entries after “also recorded” stand apart in the source; their conditions may differ.

Key:
[1] = Plasma stability, mouse; assay type: in vitro ADME; details: 5uM, triplicates
[2] = in vitro; details: African green monkey
[3] = Microsomal stability, mouse; assay type: in vitro ADME; details: triplicates; for Microsomal stability Rem. at 45 min / Microsomal stability T1/2: 0.5 mg/ml mouse microsomes, 5uM; for microsomal CLint at 5 µM / half-life at 5 µM: pH 7.4, 0.5 mg/ml mouse microsomes; for half-life at 5 µM: read-out: Microsomal stability T1/2
[4] = Plasma stability, human; assay type: in vitro ADME; details: 5uM, triplicates, 37 °C
Experimental: The microsomal half-lives (t1/2) were calculated using the equation t1/2=0.693/k, where k is the slope found in the linear fit of the natural logarithm of the fraction remaining of the parent compound vs. incubation time. […]
To determine plasma stability of the compounds, 5 μM of these were incubated with human pooled plasma from 50 donors (Biowest) for 120 min and 240 min at 37 °C. The reactions were terminated by adding four volumes of ice -cold methanol, the samples were then mixed vigorously and left at -20 °C for 1 h. After that, the samples were centrifuged, and the supernatant was analyzed by means of ECHO -MS® System (Sciex). Zero time points were prepared by adding ice-cold methanol to the compound prior the addition of the plasma. […]

[5] = test system: SARS-CoV-2; assay: microbe, parasite or virus in culture; assay type: cell-based; details: Severe acute respiratory syndrome coronavirus 2, 72 h; Calu-3 cells, MOI~0.03, 3 days incubation, CPE by XTT; read-out: EC50 (anti-SARS-CoV-2 activity)
[6] = test system: VERO-E6 cells; assay: Steady-state intracellular uptake in VERO-E6 cells; assay type: in vitro ADME; details: VERO-E6, 60 min incubation, 50 μM at t = 0
Text: (§1) While an enzymatic MTase assay represents a valuable fast screening platform providing the information that can be directly used for SAR analyses, it is not fully predictive for the compounds’ activity in whole cells. In order to verify the ability of the compounds to reach the intracellular compartment, we measured the steady-state accumulation of representative compounds in intact CCRF-CEM, VERO-E6, and Calu-3 cells (Tables 3 and S2). […] Compound 12q was almost completely cleared from the medium after 60 min incubation with the cells rendering it among the most permeable compounds of the series based on Kp values. It should be noted that the apparent intracellular concentration of the compounds may be biased by their potential metabolism. Therefore, we decided to subject the selected derivatives to in vitro stability studies. […]
(§2) 3.3. Intracellular Uptake
(§3) Steady-state cellular uptake was measured in CCRF-CEM cells (ATCC, CRL-119), VERO-E6 cells (ATCC, CRL-1586) and Calu-3 cells (HTB-55), respectively. […]
(§4) The medium was stored at −20 °C […]
(§5) for later analysis of the extracellular concentration of the compounds. The cells were washed two times with 1 mL PBS (900 x g, 5 min, +4 °C), and also stored at −20 °C for subsequent analysis of the intracellular concentration of the compounds. At the day of the analysis, both media and the pelleted cells were quickly thawed. The cell pellets were extracted with 200 μL of ice-cold methanol by vigorous shaking, further diluted 1:1 with water and centrifuged at 20 000 x g for 10 min. As for the media samples, 10 μL aliquots were extracted with 990 μL of 50% methanol. The samples were then transferred to ECHO® -compatible 384-well plates and the amount of analytes were quantified by the ECHO -MS® System (Sciex) where acoustic droplet ejection module is coupled with Sciex 6500® triple quadrupole mass spectrometer operating with an electrospray ionization source. Spectrometer was run in the multiple reaction monitoring (MRM) mode. When necessary, the processed samples were further diluted in 50% methanol to fit in the calibration range. Calibration curves of the compounds in 50% methanol were measured alongside the samples within the same run. The ra tio between the total compound concentration in the cells and compound concentration in the medium (K p) at t=60 min was calculated according to: Kp = (Acell / Vcell) / Cmedium, where Acell is the amount of compound in the cell lysate, Vcell is the CCRF-CEM cell volume (3.38 μL/10^7 cells)16 and Cmedium is the compound concentration in the medium sample after correcting for sample dilution. Experiments were performed in duplicates.
(§6) For adherent cells (Vero E6 and Calu-3), the workflow was modified as follows: Cells were seeded on 6-well plates at a concentration of […] and 8.2 x 10^5 cells/well for Vero E6 and Calu-3, respectively, in 3 mL of serum-free culture media. The cells were left to attach overnight, the medium was then aspirated and replenished with 2 mL of fresh media containing the compounds (50 µM final conc). After 60 min at 37 °C the media was aspirated and the cells were washed twice with 1 mL of PBS. Then, 1 mL of fresh PBS was added and the cells were subjected to three freeze-thaw cycles and further diluted with 1:1 with MeOH. The cell lysates and the media were further processed as described above. Intracellular volume of Vero E6 and Calu-3 cells (8.6 and 14 μL/107 cells, respectively) was calculated from their diameter determined by cell counter (Luna FL) while in suspension (following the trypsinization) assuming the homogenous spheres.

[7] = Steady-state intracellular uptake in VERO-E6 cells; assay type: in vitro ADME; details: African green monkey, VERO-E6 cells; VERO-E6, 60 min incubation, 50 μM at t = 0; read-out: Kp (intracellular accumulation ratio IC/EC)
Text: as §1, §2, §3, §4, §5, §6

In the case of `COc1ccc(S(=O)(=O)N(C)C[C@H]2O[C@@H](n3cc(C#Cc4cccnc4)c4c(N)ncnc43)[C@H](O)[C@@H]2O)cc1C#N` [Compound 12s], the “Plasma stability Rem. at 120 min” value [1] is reported as 102.7 ± 3.4%, the “Plasma stability T1/2” value [1] is reported as “Stable” and the CC50 at 3 days [2] is reported as over 100 µM. For the same compound, the “Microsomal stability Rem. at 45 min” value [3] was 50.2 ± 3.2%, the microsomal CLint at 5 µM [3] was 30.5 ± 4.7 µL/min/mg and the half-life at 5 µM [3] was 50.8 ± 5.1 min. For the same compound, the “Plasma stability Rem. at 120 min” value [4] was 86.9 ± 0.9%, the “Plasma stability T1/2” value [4] was “Stable” and the EC50 [5] was over 100 µM. The “EC (extracellular concentration in the media at t = 60 min) ± sd” value [6] was 2.6 ± 2.3 µM, the “IC (intracellular concentration in the cells at t = 60 min) ± sd” value [6] was 13,578 ± 3626 μM and the Kp at 1 h, 50 µM [7] was 5210.

For `CCN(C[C@H]1O[C@@H](n2cc(C#Cc3cccnc3)c3c(N)ncnc32)[C@H](O)[C@@H]1O)S(=O)(=O)c1ccc(OC)c(C#N)c1` [Compound 12l], the “Plasma stability Rem. at 120 min” value [1] was 109.9 ± 1.0%, the “Plasma stability T1/2” value [1] was “Stable” and the CC50 at 3 days [2] was over 100 µM. The “Microsomal stability Rem. at 45 min” value [3] was 37.4 ± 0.5%, the microsomal CLint at 5 µM [3] was 40.9 ± 0.8 µL/min/mg and the half-life at 5 µM [3] was 33.7 ± 0.7 min. The “Plasma stability Rem. at 120 min” value [4] was 89.8 ± 2.0%, the “Plasma stability T1/2” value [4] was “Stable” and the EC50 [5] was over 100 µM. For the same compound, the “EC (extracellular concentration in the media at t = 60 min) ± sd” value [6] was 17.1 ± 2.9 µM and the Kp at 1 h, 50 µM [7] was 225.

For `CCN(C[C@H]1O[C@@H](n2cc(C#Cc3cnc4ccccc4c3)c3c(N)ncnc32)[C@H](O)[C@@H]1O)S(=O)(=O)c1ccc(OC)c(C#N)c1` [Compound 12e], the “Plasma stability Rem. at 120 min” value [1] was 120.8 ± 10.5%, the “Plasma stability T1/2” value [1] was “Stable” and the CC50 at 3 days [2] was over 100 µM. The “Microsomal stability Rem. at 45 min” value [3] was 79.3 ± 3.8%, the “Microsomal stability T1/2” value [3] was “Stable” and the “Plasma stability Rem. at 120 min” value [4] was 76.3 ± 13.7%. The “Plasma stability T1/2” value [4] was “Stable”, the EC50 [5] was over 100 µM and the “EC (extracellular concentration in the media at t = 60 min) ± sd” value [6] was 16.5 ± 3.6 µM. For the same compound, the Kp at 1 h, 50 µM [7] was 608.

For `COc1ccc(S(=O)(=O)N(C)C[C@H]2O[C@@H](n3cc(C#Cc4ccc(C(N)=O)cc4)c4c(N)ncnc43)[C@H](O)[C@@H]2O)cc1C#N` [Compound 12r], the “Plasma stability Rem. at 120 min” value [1] was 113.5 ± 6.0%, the “Plasma stability T1/2” value [1] was “Stable” and the CC50 at 3 days [2] was over 100 µM. The “Microsomal stability Rem. at 45 min” value [3] was 80.9 ± 12.0%, the “Microsomal stability T1/2” value [3] was “Stable; also recorded: excellent stability” and the “Plasma stability Rem. at 120 min” value [4] was 89.7 ± 0.6%. The “Plasma stability T1/2” value [4] was “Stable”, the EC50 [5] was over 100 µM and the “EC (extracellular concentration in the media at t = 60 min) ± sd” value [6] was 1.1 ± 0.5 µM. The “IC (intracellular concentration in the cells at t = 60 min) ± sd” value [6] was 19,777 ± 7485 μM.

For `CCN(C[C@H]1O[C@@H](n2cc(C#Cc3ccc(C(N)=O)cc3)c3c(N)ncnc32)[C@H](O)[C@@H]1O)S(=O)(=O)c1ccc(OC)c(C#N)c1` [Compound 12o], the “Plasma stability Rem. at 120 min” value [1] was 115.4 ± 3.7%, the “Plasma stability T1/2” value [1] was “Stable” and the CC50 at 3 days [2] was over 100 µM. For the same compound, the “Microsomal stability Rem. at 45 min” value [3] was 65.9 ± 3.2%, the microsomal CLint at 5 µM [3] was 19.2 ± 1.7 µL/min/mg and the half-life at 5 µM [3] was 74.9 ± 7.5 min. The “Plasma stability Rem. at 120 min” value [4] was 95.6 ± 5.1%, the “Plasma stability T1/2” value [4] was “Stable” and the EC50 [5] was over 100 µM. For the same compound, the “EC (extracellular concentration in the media at t = 60 min) ± sd” value [6] was 20.9 ± 0.8 µM and the Kp at 1 h, 50 µM [7] was 247.

In the case of `CCN(C[C@H]1O[C@@H](n2cc(C#Cc3ccc(N)nc3)c3c(N)ncnc32)[C@H](O)[C@@H]1O)S(=O)(=O)c1ccc(OC)c(C#N)c1` [Compound 12h], the “Plasma stability Rem. at 120 min” value [1] is reported as 108.2 ± 4.2%, the “Plasma stability T1/2” value [1] is reported as “Stable” and the CC50 at 3 days [2] is reported as over 100 µM. For the same compound, the “Microsomal stability Rem. at 45 min” value [3] was 43.0 ± 0.8%, the microsomal CLint at 5 µM [3] was 37.8 ± 1.8 µL/min/mg and the half-life at 5 µM [3] was 37.3 ± 1.8 min. The “Plasma stability Rem. at 120 min” value [4] was 102.3 ± 4.8%, the “Plasma stability T1/2” value [4] was “Stable” and the EC50 [5] was over 100 µM. The “EC (extracellular concentration in the media at t = 60 min) ± sd” value [6] was 19.5 ± 2.0 µM and the Kp at 1 h, 50 µM [7] was 885.

In the case of `CCN(C[C@H]1O[C@@H](n2cc(C#Cc3nc4ccccc4[nH]3)c3c(N)ncnc32)[C@H](O)[C@@H]1O)S(=O)(=O)c1ccc(OC)c(C#N)c1` [Compound 12a], the “Plasma stability Rem. at 120 min” value [1] is reported as 119.2 ± 6.0%, the “Plasma stability T1/2” value [1] is reported as “Stable” and the CC50 at 3 days [2] is reported as over 100 µM. The “Microsomal stability Rem. at 45 min” value [3] was 48.7 ± 3.2%, the microsomal CLint at 5 µM [3] was 32.6 ± 2.1 µL/min/mg and the half-life at 5 µM [3] was 44.1 ± 2.7 min. For the same compound, the “Plasma stability Rem. at 120 min” value [4] was 84.3 ± 2.6%, the “Plasma stability T1/2” value [4] was “Stable” and the EC50 [5] was over 100 µM. The “EC (extracellular concentration in the media at t = 60 min) ± sd” value [6] was 42 ± 3.2 µM and the Kp at 1 h, 50 µM [7] was 822.

With `COc1ccc(S(=O)(=O)N(C)C[C@H]2O[C@@H](n3cc(C#Cc4cnc5ccccc5c4)c4c(N)ncnc43)[C@H](O)[C@@H]2O)cc1C#N` [Compound 12q] the “Plasma stability Rem. at 120 min” value [1] was 113.2 ± 3.7%, the “Plasma stability T1/2” value [1] was “Stable” and the CC50 at 3 days [2] was over 100 µM. The “Microsomal stability Rem. at 45 min” value [3] was 101.0 ± 3.4%, the “Microsomal stability T1/2” value [3] was “Stable; also recorded: excellent stability” and the “Plasma stability Rem. at 120 min” value [4] was 97.2 ± 4.1%. For the same compound, the “Plasma stability T1/2” value [4] was “Stable”, the EC50 [5] was over 100 µM and the “EC (extracellular concentration in the media at t = 60 min) ± sd” value [6] was 0.1 ± 0.1 µM. For the same compound, the “IC (intracellular concentration in the cells at t = 60 min) ± sd” value [6] was 18,533 ± 7709 μM.
